Experimental data: the supplement of paper PMC10307832

Legend:
Assay in all cases: relative viability (nuclei count vs DMSO), 5 days (fraction); higher = more cells survive
Serdemetan + Trametinib = compound: c1ccc2c(CCNc3ccc(Nc4ccncc4)cc3)c[nH]c2c1 [Serdemetan] + CC(=O)Nc1cccc(-n2c(=O)n(C3CC3)c(=O)c3c(Nc4ccc(I)cc4F)n(C)c(=O)c(C)c32)c1 [Trametinib] (partner 0.02 µM)
Summary of the method: (§1)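 A single step with final 0.05% Triton X-100, 1% formaldehyde and 1 ug/ml Hoechst fixed the cells and stained nuclei 5 days after treatment. Lung cancer cell lines in 1536-well plates had been treated by pin tool the day after seeding with one drug alone or a fixed anchor-drug dose plus five library-drug doses (not always all listed) in √10 steps, and nuclei were counted on 4× images. Relative viability is the ratio of nuclei in treated wells to nuclei in vehicle wells, taken as the median of duplicate plates.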

Selisistat + Dasatinib = compound: C1CC(C2=C(C1)C3=C(N2)C=CC(=C3)Cl)C(=O)N [Selisistat] + Cc1nc(Nc2ncc(C(=O)Nc3c(C)cccc3Cl)s2)cc(N2CCN(CCO)CC2)n1 [Dasatinib] (partner 0.075 µM)
Summary of the method: as §1

Serdemetan + Pictilisib = compound: c1ccc2c(CCNc3ccc(Nc4ccncc4)cc3)c[nH]c2c1 [Serdemetan] + CS(=O)(=O)N1CCN(Cc2cc3nc(-c4cccc5[nH]ncc45)nc(N4CCOCC4)c3s2)CC1 [Pictilisib] (partner 1 µM)
Summary of the method: as §1

Serdemetan + Foretinib = compound: c1ccc2c(CCNc3ccc(Nc4ccncc4)cc3)c[nH]c2c1 [Serdemetan] + COc1cc2c(Oc3ccc(NC(=O)C4(C(=O)Nc5ccc(F)cc5)CC4)cc3F)ccnc2cc1OCCCN1CCOCC1 [Foretinib] (partner 0.25 µM)
Summary of the method: as §1

Cell Line | relative viability (Serdemetan + Trametinib; first compound 0.04 µM) | relative viability (Serdemetan + Trametinib; first compound 0.1265 µM) | relative viability (Serdemetan + Trametinib; first compound 0.4 µM) | relative viability (Serdemetan + Trametinib; first compound 1.265 µM) | relative viability (Serdemetan + Trametinib; first compound 4 µM) | relative viability (Selisistat + Dasatinib; first compound 0.4 µM) | relative viability (Selisistat + Dasatinib; first compound 1.265 µM) | relative viability (Selisistat + Dasatinib; first compound 4 µM) | relative viability (Selisistat + Dasatinib; first compound 12.65 µM) | relative viability (Selisistat + Dasatinib; first compound 40 µM) | relative viability (Serdemetan + Pictilisib; first compound 0.04 µM) | relative viability (Serdemetan + Pictilisib; first compound 0.1265 µM) | relative viability (Serdemetan + Pictilisib; first compound 0.4 µM) | relative viability (Serdemetan + Pictilisib; first compound 1.265 µM) | relative viability (Serdemetan + Pictilisib; first compound 4 µM) | relative viability (Serdemetan + Foretinib; first compound 0.04 µM) | relative viability (Serdemetan + Foretinib; first compound 0.1265 µM) | relative viability (Serdemetan + Foretinib; first compound 0.4 µM) | relative viability (Serdemetan + Foretinib; first compound 1.265 µM) | relative viability (Serdemetan + Foretinib; first compound 4 µM)
201T | 0.769 | 0.687 | 0.736 | 0.653 | 0.631 | 0.588 | 0.551 | 0.581 | 0.528 | 0.534 | 0.707 | 0.712 | 0.67 | 0.655 | 0.664 | 1.14 | 1.13 | 1.02 | 0.636 | 0.73
NCI-H2126 | 0.59 | 0.557 | 0.577 | 0.512 | 0.604 | 0.705 | 0.597 | 0.525 | 0.601 | 0.616 | 0.552 | 0.473 | 0.428 | 0.521 | 0.542 | 1.23 | 1.13 | 1.03 | 1.01 | 1.03
HOP-62 | 0.353 | 0.319 | 0.343 | 0.314 | 0.28 | 0.677 | 0.626 | 0.507 | 0.642 | 0.664 | 0.821 | 0.798 | 0.782 | 0.604 | 0.657 | 1.04 | 1.08 | 1.1 | 0.796 | 0.693
CAL-12T | 0.447 | 0.335 | 0.334 | 0.365 | 0.308 | 0.451 | 0.478 | 0.316 | 0.281 | 0.372 |  | 0.521 |  | 0.369 | 0.368 | 1.07 | 1.15 | 1.04 | 1.03 | 0.969
NCI-H520 | 0.632 | 0.65 | 0.623 | 0.57 | 0.428 | 0.185 | 0.201 | 0.327 | 0.216 | 0.195 | 0.283 | 0.327 | 0.321 | 0.269 | 0.272 | 0.668 | 0.737 | 0.874 |  | 0.511
NCI-H1755 | 0.762 | 0.703 | 0.744 | 0.572 | 0.474 | 0.474 | 0.476 | 0.418 | 0.419 | 0.414 | 0.428 | 0.458 | 0.455 | 0.307 | 0.296 | 0.901 | 0.934 | 0.846 | 0.674 | 0.599
NCI-H2023 | 0.616 | 0.538 | 0.522 | 0.223 | 0.298 | 0.495 | 0.497 | 0.524 | 0.539 | 0.512 | 0.219 | 0.28 | 0.19 | 0.182 | 0.189 | 0.804 | 0.795 | 0.689 | 0.653 | 0.267
NCI-H2009 | 0.248 | 0.284 | 0.243 | 0.266 | 0.281 | 0.323 | 0.267 | 0.208 | 0.239 | 0.241 | 0.793 | 0.822 | 0.887 | 0.424 | 0.662 | 1.18 | 1.14 | 1.16 | 1.14 | 0.887
